Data set [1] relates to Recombinant Respiratory Syncytial virus strain A2 containing the firefly luciferase reporter (RSV-Fluc). Description: microbe, parasite or virus in culture. Type of data set: cell-based.
Another data set concerns SARS-CoV-2. Description: microbe, parasite or virus in culture. It is filed as cell-based. Conditions: read-out: SARS EC50.
In the next data set the test system is MT4. In words: MT4 cytotoxicity (CC50). Conditions: read-out: MT4 CC50; Table 2a.

The structures appear in SMILES notation. Where two headings read alike, the source gives them in different places.

Consider `CCCCCCCCCCCCCCCCCCOC[C@H](COP(=O)(O)OC[C@H]1O[C@@](C#N)(c2ccc3c(N)ncnn23)[C@H](O)[C@@H]1O)OC(C)c1ccccc1` (single isomer, unassigned) [Example 28], for which the EC50 in data set [1] (read-out: RSV EC50, Table 2a) came out at 75 nM; in data set [1] (read-out: RSV-Fluc EC50 (NHBE), NHBE cells, three days, Table 2) it was 70 nM; with SARS-CoV-2, 2300 nM. The CC50 in the data set with MT4 was 1060 nM.

A word on the EC50: it is the concentration giving half of the maximal effect. What is called CC50 is the concentration that lowers cell viability or growth by half.

The record behind these values is US12030904B2 (priority 2020, dated 2024).
